Source: article PMC2921631 (Analytical biochemistry, 2010)

Key:
Type in all cases: biochemical
[1] = target: LRRK2 (full-length, from BAC-transgenic mouse brain) (Mus musculus, UniProt Q5S006); assay: TR-FRET kinase assay with PLK-peptide
LRRK2 (human, wild-type) = LRRK2 (human, wild-type) (Homo sapiens, UniProt Q5S007); assay: TR-FRET kinase assay with PLK-peptide, […] h preincubation
[2] = target: LRRK2 (human, G2019S mutant) (Homo sapiens, UniProt Q5S007, G2019S); assay: as above
Sequence of LRRK2 (human, G2019S mutant) (Q5S007 970-2527 G2019S): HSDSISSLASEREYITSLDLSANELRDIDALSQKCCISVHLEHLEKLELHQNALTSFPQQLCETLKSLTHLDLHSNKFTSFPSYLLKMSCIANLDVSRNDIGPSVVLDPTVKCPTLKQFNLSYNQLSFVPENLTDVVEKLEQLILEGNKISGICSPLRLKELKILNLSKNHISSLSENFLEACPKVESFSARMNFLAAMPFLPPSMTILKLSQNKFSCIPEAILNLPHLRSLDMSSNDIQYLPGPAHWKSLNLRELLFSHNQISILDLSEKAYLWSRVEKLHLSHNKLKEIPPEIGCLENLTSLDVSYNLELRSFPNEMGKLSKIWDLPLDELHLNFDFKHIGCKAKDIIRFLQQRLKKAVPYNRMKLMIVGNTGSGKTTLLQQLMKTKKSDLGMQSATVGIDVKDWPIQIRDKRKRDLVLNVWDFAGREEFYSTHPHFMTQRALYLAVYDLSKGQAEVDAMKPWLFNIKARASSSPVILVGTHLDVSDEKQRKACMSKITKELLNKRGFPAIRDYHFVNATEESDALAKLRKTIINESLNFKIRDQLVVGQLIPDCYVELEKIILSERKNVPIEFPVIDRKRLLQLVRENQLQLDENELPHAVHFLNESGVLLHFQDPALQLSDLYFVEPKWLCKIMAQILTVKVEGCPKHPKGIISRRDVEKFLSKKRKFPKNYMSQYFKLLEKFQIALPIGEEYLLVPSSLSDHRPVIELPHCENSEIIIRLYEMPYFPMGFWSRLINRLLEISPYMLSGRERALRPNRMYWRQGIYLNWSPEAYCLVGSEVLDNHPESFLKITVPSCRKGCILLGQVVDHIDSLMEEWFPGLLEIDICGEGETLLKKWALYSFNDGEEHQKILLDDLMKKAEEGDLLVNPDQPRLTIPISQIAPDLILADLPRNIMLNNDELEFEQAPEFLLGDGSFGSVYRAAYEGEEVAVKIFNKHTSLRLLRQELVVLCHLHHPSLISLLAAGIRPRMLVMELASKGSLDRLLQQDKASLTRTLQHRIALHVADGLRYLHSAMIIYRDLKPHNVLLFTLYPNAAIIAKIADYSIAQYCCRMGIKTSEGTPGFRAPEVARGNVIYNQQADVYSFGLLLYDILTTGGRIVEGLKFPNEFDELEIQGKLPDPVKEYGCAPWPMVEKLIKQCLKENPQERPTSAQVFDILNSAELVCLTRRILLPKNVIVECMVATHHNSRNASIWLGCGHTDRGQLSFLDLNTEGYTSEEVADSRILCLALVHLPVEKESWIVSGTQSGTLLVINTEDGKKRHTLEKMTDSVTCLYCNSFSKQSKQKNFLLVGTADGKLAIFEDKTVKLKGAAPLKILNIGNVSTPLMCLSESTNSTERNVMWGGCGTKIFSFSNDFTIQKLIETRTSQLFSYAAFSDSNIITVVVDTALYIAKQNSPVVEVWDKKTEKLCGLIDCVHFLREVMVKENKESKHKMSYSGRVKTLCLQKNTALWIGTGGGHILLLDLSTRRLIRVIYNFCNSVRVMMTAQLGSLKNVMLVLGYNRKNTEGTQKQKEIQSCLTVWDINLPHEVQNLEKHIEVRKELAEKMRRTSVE

Sequence of LRRK2 (full-length, from BAC-transgenic mouse brain) (Q5S006 whole entry): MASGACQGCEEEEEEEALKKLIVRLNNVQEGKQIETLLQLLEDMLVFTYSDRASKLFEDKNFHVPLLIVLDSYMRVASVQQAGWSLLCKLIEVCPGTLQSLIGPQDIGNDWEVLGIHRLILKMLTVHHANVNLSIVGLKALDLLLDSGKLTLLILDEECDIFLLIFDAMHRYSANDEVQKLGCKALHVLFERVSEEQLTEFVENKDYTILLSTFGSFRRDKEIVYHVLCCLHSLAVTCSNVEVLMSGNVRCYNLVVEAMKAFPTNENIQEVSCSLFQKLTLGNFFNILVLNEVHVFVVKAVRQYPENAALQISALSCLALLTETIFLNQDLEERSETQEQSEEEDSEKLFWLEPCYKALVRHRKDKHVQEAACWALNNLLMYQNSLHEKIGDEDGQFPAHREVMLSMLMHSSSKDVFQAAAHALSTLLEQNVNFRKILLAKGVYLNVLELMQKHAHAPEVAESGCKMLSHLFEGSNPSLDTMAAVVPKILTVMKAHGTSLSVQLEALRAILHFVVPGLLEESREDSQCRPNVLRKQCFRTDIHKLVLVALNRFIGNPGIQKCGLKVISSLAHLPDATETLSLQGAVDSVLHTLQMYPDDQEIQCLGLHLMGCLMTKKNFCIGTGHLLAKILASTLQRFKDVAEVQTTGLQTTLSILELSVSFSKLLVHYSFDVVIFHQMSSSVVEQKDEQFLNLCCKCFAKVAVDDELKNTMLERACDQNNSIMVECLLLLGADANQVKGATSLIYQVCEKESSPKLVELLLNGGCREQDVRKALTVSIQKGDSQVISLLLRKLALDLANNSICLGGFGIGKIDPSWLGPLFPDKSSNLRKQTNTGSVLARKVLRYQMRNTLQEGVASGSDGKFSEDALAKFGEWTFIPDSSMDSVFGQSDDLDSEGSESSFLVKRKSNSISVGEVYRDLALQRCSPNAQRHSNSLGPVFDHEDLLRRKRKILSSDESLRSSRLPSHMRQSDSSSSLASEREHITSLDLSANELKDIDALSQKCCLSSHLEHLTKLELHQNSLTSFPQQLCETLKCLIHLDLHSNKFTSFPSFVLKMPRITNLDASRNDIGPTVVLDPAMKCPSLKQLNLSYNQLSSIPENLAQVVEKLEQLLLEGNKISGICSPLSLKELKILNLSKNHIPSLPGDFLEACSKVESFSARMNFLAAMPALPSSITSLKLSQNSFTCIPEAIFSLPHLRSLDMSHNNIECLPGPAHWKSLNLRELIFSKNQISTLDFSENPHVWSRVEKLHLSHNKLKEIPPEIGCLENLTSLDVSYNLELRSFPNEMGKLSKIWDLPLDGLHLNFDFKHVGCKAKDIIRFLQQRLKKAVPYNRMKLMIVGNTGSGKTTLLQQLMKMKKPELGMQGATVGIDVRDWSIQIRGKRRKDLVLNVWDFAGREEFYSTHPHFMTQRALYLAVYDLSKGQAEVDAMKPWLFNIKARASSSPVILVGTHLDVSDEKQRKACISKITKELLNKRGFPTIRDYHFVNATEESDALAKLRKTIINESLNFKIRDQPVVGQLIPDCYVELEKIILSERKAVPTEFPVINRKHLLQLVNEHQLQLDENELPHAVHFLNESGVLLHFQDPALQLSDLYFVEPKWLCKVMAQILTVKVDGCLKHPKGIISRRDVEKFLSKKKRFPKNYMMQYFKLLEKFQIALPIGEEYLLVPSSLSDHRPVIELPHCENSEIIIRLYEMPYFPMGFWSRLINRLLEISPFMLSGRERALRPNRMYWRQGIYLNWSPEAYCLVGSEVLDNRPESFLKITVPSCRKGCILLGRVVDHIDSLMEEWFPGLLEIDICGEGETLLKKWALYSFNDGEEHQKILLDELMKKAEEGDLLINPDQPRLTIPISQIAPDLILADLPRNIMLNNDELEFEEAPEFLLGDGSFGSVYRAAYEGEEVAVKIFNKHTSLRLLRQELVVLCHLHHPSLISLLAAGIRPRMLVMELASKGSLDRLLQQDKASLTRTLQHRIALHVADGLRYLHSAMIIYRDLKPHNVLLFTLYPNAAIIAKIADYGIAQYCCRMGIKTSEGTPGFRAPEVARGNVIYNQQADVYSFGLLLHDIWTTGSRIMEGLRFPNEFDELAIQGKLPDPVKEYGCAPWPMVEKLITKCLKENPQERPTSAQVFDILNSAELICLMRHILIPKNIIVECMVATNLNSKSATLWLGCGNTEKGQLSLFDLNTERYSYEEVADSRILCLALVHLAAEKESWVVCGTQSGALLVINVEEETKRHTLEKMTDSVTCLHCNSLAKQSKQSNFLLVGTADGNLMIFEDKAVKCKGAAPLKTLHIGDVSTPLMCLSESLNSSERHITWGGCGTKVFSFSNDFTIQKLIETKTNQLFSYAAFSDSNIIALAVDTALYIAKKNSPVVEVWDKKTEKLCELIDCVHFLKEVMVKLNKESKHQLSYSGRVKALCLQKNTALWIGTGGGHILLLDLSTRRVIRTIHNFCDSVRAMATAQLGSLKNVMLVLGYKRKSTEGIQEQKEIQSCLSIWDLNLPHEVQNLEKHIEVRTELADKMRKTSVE
Sequence of LRRK2 (human, wild-type) (Q5S007 970-2527): as the sequence (Q5S007 970-2527 G2019S) above, with S1050G counted along it

LDN-22684 showed an IC50 [1] of 5.4 ± 0.8 µM, an IC50 (LRRK2 (human, wild-type)) of 6.1 ± 0.8 µM and an IC50 [2] of 6.9 ± 1 µM.
